Patent publication US20250109118A1, “HETEROCYCLIC COMPOUNDS AS SHP2 INHIBITORS, COMPOSITIONS COMPRISING THE HETEROCYCLIC COMPOUND, AND METHODS OF USE THEREOF” (JS INNOMED HOLDINGS LTD., priority 2021, published 2025)

Assays:
MiaPaCa-2 cells = assay: MiaPaCa-2 Cell proliferation assay in 3D culture (CCK8); format: cell-based; conditions: Homo sapiens, MIA PaCa-2, 120 h; 3D spheroid culture, 5 days with compound, CCK8 readout
Experimental: MiaPaCa-2 Cell proliferation assay in 3D culture. To evaluate cell viability, MiaPaCa-2 cells in logarithmic growth phase were seeded at optimal density and grown in as spheroids. Cells were incubated for 24 hours prior to the addition of different concentrations of the compounds. Cells were cultured with the compounds for 5 days and the cell viability was assessed using CCK8. Briefly, 2500 cells were seeded in round bottom ultra-low attachment 96 well plates (coming) in growth media supplemented with 10% FBS and incubated at 37° C. for 24 hours. The compounds were dissolved in DMSO (Sigma) to obtain 10 mM stock solution. Then the compounds were serially diluted in 3-fold to ten concentrations; 5 μL of the dilution above was transferred to 95 uL culture media to obtain the 50× compound stock solution; 4 uL of the 50× compound above was then transferred to the wells containing cells with 196 μL of the culture medium to obtain the final 1× concentration. The final concentration of DMSO was 0.1%. Spheroid cells were incubated in compounds for 5 days. Then 20 μL WST-8 solution (DOJINDO, Cell Counting KIT-8) was added to each well. The plates were further incubated at 37° C. for 1.5 hours, and then absorbance at 450 nm was measured using a microplate reader. Each compound was tested in triplicate and the IC50 value was calculated using GraphPad Prism.
The IC50 values of for Compounds disclosed are listed in Table 2, A: ≤500 nM; B: >500 nM and ≤5 μM; C: >5 μM and ≤50 μM; and D: >50 μM.

SHP2 (PTPN11/SHP2-FL) = molecular target: T1, SHP2 (PTPN11/SHP2-FL) (Homo sapiens, UniProt Q06124); assay: SHP2 biochemical assay (DiFMUP prompt fluorescence); conditions: 0.5 nM SHP2, 0.35 μM activating peptide, DiFMUP 100 μM; read-out: SHP2 bichemical activity (IC50)
T1 construct: SHP2 (PTPN11/SHP2-FL, RBC produced, no cat #); purchased RBC no cat #
T1 sequence (Q06124 1-593): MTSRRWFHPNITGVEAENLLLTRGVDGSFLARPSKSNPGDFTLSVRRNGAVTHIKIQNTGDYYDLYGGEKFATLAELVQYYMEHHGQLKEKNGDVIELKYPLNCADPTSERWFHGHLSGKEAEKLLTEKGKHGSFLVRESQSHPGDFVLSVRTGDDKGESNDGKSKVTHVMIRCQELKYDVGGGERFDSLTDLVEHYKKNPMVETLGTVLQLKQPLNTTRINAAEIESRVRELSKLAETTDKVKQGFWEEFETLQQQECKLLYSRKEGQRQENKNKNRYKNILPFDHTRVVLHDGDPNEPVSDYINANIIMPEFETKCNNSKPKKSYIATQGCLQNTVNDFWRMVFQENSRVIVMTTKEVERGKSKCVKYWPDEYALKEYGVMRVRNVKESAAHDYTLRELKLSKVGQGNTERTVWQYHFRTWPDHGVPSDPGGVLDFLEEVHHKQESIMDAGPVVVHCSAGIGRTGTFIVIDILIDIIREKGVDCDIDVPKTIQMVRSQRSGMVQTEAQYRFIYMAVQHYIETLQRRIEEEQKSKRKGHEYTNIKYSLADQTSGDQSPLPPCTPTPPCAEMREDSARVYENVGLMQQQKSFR
Experimental: SHP2 is allosterically activated through binding of bis-tyro syiphorphorylated peptides to its Src Homology 2 (SH2) domains. The latter activation step leads to the release of the auto-inhibitory interface of SHP2, which in turn renders the SHP2 PTP active and available for substrate recognition and reaction catalysis. The catalytic activity of SHP2 was monitored using the surrogate substrate DiFMUP in a prompt fluorescence assay format. Specifically, the phosphatase reactions were performed at room temperature in 384-well black polystyrene plate, flat bottom, low flange, non-binding surface (Corning, Cat #3575) using a final reaction volume of 20 μL and the following assay buffer conditions: 60 mM HEPES, pH 7.2, 75 mM NaCl, 75 mM KCl, 1 mM EDTA, 0.01% Brij-35, 5 mM DTT, and 10% DMSO (final). The inhibition of SHP2 from the tested compounds (final concentrations varying from 0.003-100 μM) was monitored using an assay in which 0.5 nM of SHP2 (PTPN11/SHP2-FL, RBC produced, no cat #) was incubated with 0.35 μM of the peptide H2NLN(pY)IDLDLV(dPEG8)LST(pY)ASINFQK-amide. After 20 minutes of incubation at room temperature, the surrogate substrate DiFMUP (6,8-difluoro-7-hydroxy-4-methylcoumarin, Invitrogen, cat #D6567, 100 μM final concentration) was added to the reaction. The fluorescence signal was monitored using a microplate reader (Envision, Perkin-Elmer) using excitation and emission wavelengths of 355 nm and 460 nm, respectively. The inhibitor dose response curves were analyzed using normalized IC50 regression curve fitting with control based normalization.
The IC50 values of for Compounds disclosed are listed in Table 2, A: ≤10 nM; B: >10 nM and ≤100 nM; C: >100 nM and ≤1 uM; and D: >1 μM.

IC50 (MiaPaCa-2 cells) [µM] | IC50 (SHP2 (PTPN11/SHP2-FL)) [µM] | Structure (SMILES)
5 to 50 | 0.01 to 0.1 | CC1(N)CCN(c2cnc(Sc3cccc(C(=O)NS(=O)(=O)C4CC4)c3Cl)cn2)CC1 [Example 18, 3-((5-(4-amino-4-methylpiperidin-1-yl)pyrazin-2-yl)thio)-2-chloro-N-(cyclopropylsulfonyl)benzamide]
≤ 0.5 | ≤ 0.01 | CC1(CN)CCN(c2cnc(Sc3cccc(NC(=O)NS(=O)(=O)C4CCCC4)c3Cl)c(N)n2)CC1 [Example 42, N-((3-((3-amino-5-(4-(aminomethyl)-4-methylpiperidin-1-yl)pyrazin-2-yl)thio)-2-chlorophenyl)carbamoyl)cyclopentanesulfonamide]
≤ 0.5 | ≤ 0.01 | Nc1nc(N2CCC3(CC2)COC[C@H]3N)cnc1Sc1cccc(C(=O)NS(=O)(=O)c2ccccc2)c1Cl [Example 31, (S)-3-((3-amino-5-(4-amino-2-oxa-8-azaspiro[4.5]decan-8-yl)pyrazin-2-yl)thio)-2-chloro-N-(phenylsulfonyl)benzamide]
≤ 0.5 | ≤ 0.01 | CC1(CN)CCN(c2cnc(Sc3cccc(NC(=O)NS(=O)(=O)C4CC4)c3Cl)c(N)n2)CC1 [Example 43, N-((3-((3-amino-5-(4-(aminomethyl)-4-methylpiperidin-1-yl)pyrazin-2-yl)thio)-2-chlorophenyl)carbamoyl)cyclopropanesulfonamide]
≤ 0.5 | 0.01 to 0.1 | CC1(N)CCN(c2cnc(Sc3cccc(S(=O)(=O)NC(=O)c4ccccc4)c3Cl)cn2)CC1 [Example 33, N-((3-((5-(4-amino-4-methylpiperidin-1-yl)pyrazin-2-yl)thio)-2-chlorophenyl)sulfonyl)benzamide]
5 to 50 | 0.01 to 0.1 | CC1(CN)CCN(c2cnc(Sc3cccc(C(=O)NS(=O)(=O)c4ccncc4)c3Cl)c(N)n2)CC1 [Example 39, 3-((3-amino-5-(4-(aminomethyl)-4-methylpiperidin-1-yl)pyrazin-2-yl)thio)-2-chloro-N-(pyridin-4-ylsulfonyl)benzamide]
5 to 50 | 0.01 to 0.1 | CC1(N)CCN(c2cnc(Sc3cccc(C(=O)NS(=O)(=O)C4CCCCC4)c3Cl)cn2)CC1 [Example 20, 3-((5-(4-amino-4-methylpiperidin-1-yl)pyrazin-2-yl)thio)-2-chloro-N-(cyclohexylsulfonyl)benzamide]
≤ 0.5 | ≤ 0.01 | CC1(CN)CCN(c2cnc(Sc3cccc(NC(=O)NS(=O)(=O)c4ccccc4)c3Cl)cn2)CC1 [Example 2, N-((3-((5-(4-(aminomethyl)-4-methylpiperidin-1-yl)pyrazin-2-yl)thio)-2-chlorophenyl)carbamoyl)benzenesulfonamide]
≤ 0.5 | ≤ 0.01 | CC1(CN)CCN(c2cnc(Sc3cccc(C(=O)NS(=O)(=O)c4ccccc4)c3Cl)cn2)CC1 [Example 21, 3-((5-(4-(aminomethyl)-4-methylpiperidin-1-yl)pyrazin-2-yl)thio)-2-chloro-N-(phenylsulfonyl)benzamide]
0.5 to 5 | ≤ 0.01 | CC1(N)CCN(c2cnc(Sc3cccc(C(=O)NS(=O)(=O)c4ccccc4)c3Cl)cn2)CC1 [Example 3, 3-((5-(4-amino-4-methylpiperidin-1-yl)pyrazin-2-yl)thio)-2-chloro-N-(phenylsulfonyl)benzamide]
≤ 0.5 | ≤ 0.01 | CC1(CN)CCN(c2cnc(Sc3cccc(NC(=O)NS(=O)(=O)C4CC4)c3Cl)cn2)CC1 [Example 32, N-((3-((5-(4-(aminomethyl)-4-methylpiperidin-1-yl)pyrazin-2-yl)thio)-2-chlorophenyl)carbamoyl)cyclopropanesulfonamide]
0.5 to 5 | ≤ 0.01 | CC1(CN)CCN(c2cnc(Sc3cccc(C(=O)NS(=O)(=O)c4ccccc4F)c3Cl)c(N)n2)CC1 [Example 34, 3-((3-amino-5-(4-(aminomethyl)-4-methylpiperidin-1-yl)pyrazin-2-yl)thio)-2-chloro-N-((2-fluorophenyl)sulfonyl)benzamide]
0.5 to 5 | ≤ 0.01 | CC1(CN)CCN(c2cnc(Sc3cccc(C(=O)NS(=O)(=O)c4cccnc4)c3Cl)cn2)CC1 [Example 24, 3-((5-(4-(aminomethyl)-4-methylpiperidin-1-yl)pyrazin-2-yl)thio)-2-chloro-N-(pyridin-3-ylsulfonyl)benzamide]
≤ 0.5 | ≤ 0.01 | CC1(CN)CCN(c2cnc(Sc3cccc(C(=O)NS(=O)(=O)C4CC4)c3Cl)cn2)CC1 [Example 25, 3-((5-(4-(aminomethyl)-4-methylpiperidin-1-yl)pyrazin-2-yl)thio)-2-chloro-N-(cyclopropylsulfonyl)benzamide]
≤ 0.5 | ≤ 0.01 | CC1(CN)CCN(c2cnc(Sc3cccc(C(=O)NS(=O)(=O)c4ccccn4)c3Cl)cn2)CC1 [Example 22, 3-((5-(4-(aminomethyl)-4-methylpiperidin-1-yl)pyrazin-2-yl)thio)-2-chloro-N-(pyridin-2-ylsulfonyl)benzamide]
≤ 0.5 | ≤ 0.01 | CC1(N)CCN(c2cnc(Sc3cccc(NC(=O)NS(=O)(=O)c4ccccc4)c3Cl)c(N)n2)CC1 [Example 4, N-((3-((3-amino-5-(4-amino-4-methylpiperidin-1-yl)pyrazin-2-yl)thio)-2-chlorophenyl)carbamoyl)benzenesulfonamide]
≤ 0.5 | ≤ 0.01 | CC1(CN)CCN(c2cnc(Sc3cccc(C(=O)NS(=O)(=O)C4CCCCC4)c3Cl)cn2)CC1 [Example 27, 3-((5-(4-(aminomethyl)-4-methylpiperidin-1-yl)pyrazin-2-yl)thio)-2-chloro-N-(cyclohexylsulfonyl)benzamide]
5 to 50 | 0.01 to 0.1 | CC1(N)CCN(c2cnc(Sc3cccc(C(=O)NS(C)(=O)=O)c3Cl)cn2)CC1 [Example 19, 3-((5-(4-amino-4-methylpiperidin-1-yl)pyrazin-2-yl)thio)-2-chloro-N-(methylsulfonyl)benzamide]
≤ 0.5 | – | C[C@@H]1OCC2(CCN(c3cnc(Sc4ccnc(NC(=O)NS(=O)(=O)c5ccc(F)cc5)c4Cl)cn3)CC2)[C@@H]1N [Example 53, N-((4-((5-((3S,4S)-4-amino-3-methyl-2-oxa-8-azaspiro[4.5]decan-8-yl)pyrazin-2-yl)thio)-3-chloropyridin-2-yl)carbamoyl)-4-fluorobenzenesulfonamide]
0.5 to 5 | – | C[C@@H]1OCC2(CCN(c3cnc(Sc4ccnc(NC(=O)NS(=O)(=O)c5cccnc5)c4Cl)cn3)CC2)[C@@H]1N [Example 51, N-((4-((5-((3S,4S)-4-amino-3-methyl-2-oxa-8-azaspiro[4.5]decan-8-yl)pyrazin-2-yl)thio)-3-chloropyridin-2-yl)carbamoyl)pyridine-3-sulfonamide]
